Data published in patent publication US9687498B1, “Composition for preventing or treating muscle wasting-related disease and use thereof” (Samsung Electronics Co., Ltd., priority 2015, dated 2017).
Counter-ions that a name gives are not always drawn.

Legend:
Type in all cases: cell-based, mouse
PGC-1 alpha 4 isoform = assay: Real time PCR of PGC-1 alpha 4 isoform mRNA in differentiated C2C12 muscle cells; settings: 10 μM compound in 0.1% DMSO, about 24 hours, normalized to GAPDH, vs DMSO negative control
Description: (§1) In detail, C2C12 cell line (mouse gastrocnemius muscle, ATCC® CRL-1772™) was seeded in a 10% FBS/DMEM culture medium. When the cells reached about 70% confluence in 5% CO2 incubator at 37° C., the culture medium was replaced by 2% FBS/DMEM, and further cultured for about 4 days to induce complete differentiation into muscle cells. The C2C12 cell line is a mouse myoblast cell line obtained through continuous culture of myoblasts cultured from the gastrocnemius muscle of C3H mice.
(§2) When the C2C12 cells were completely differentiated, the medium was removed, and 10 μM (in 0.1% DMSO) of active compound for screening was added to the cultured muscle cells, followed by incubation under conditions of 37° C. and 5% CO2 for about 24 hours. As the active compound for screening, a library of a total of 700 compounds (Selleck Chemicals) was used. Thereafter, the cultured muscle cells were washed with PBS to obtain muscle cells. As a negative control, muscle cells treated with DMSO (Sima-Aldrich), instead of the active compound for screening, were used. As a positive control, muscle cells treated with forskolin were used.
(§3) Total RNA was separated according to the manufacturer's protocol by adding a Trizol reagent (Invitrogen) to the obtained cells. cDNA was synthesized from the separated total RNA using reverse transcriptase. The mRNA levels of PGC-1 alpha 4 isoform and myostatin were quantified using a real time PCR (MyiQPCR instrument, BioRad), which is a device for measuring SYBR Green. The resulting amounts were then normalized to the amount of GAPDH mRNA.
(§4) After normalization of the values obtained from the amplification to GAPDH gene, relative mRNA expression levels of PGC-1 alpha 4 isoform and myostatin were quantified. The relative mRNA expression levels (Arbitrary Unit; AU) of PGC-1 alpha 4 isoform and myostatin thus quantified are shown in FIGS. 2A and 2B, respectively (*: p<0.05 vs. negative control).

myostatin = assay: Real time PCR of myostatin mRNA in differentiated C2C12 muscle cells; settings: 10 μM compound in 0.1% DMSO, about 24 hours, normalized to GAPDH, vs DMSO negative control
Description: as §1, §2, §3, §4

C2C12 cells = assay: Muscle fiber diameter of differentiated C2C12 muscle cells (microscope); settings: 100 μM compound, about 24 hours, vs DMSO negative control
Description: as §1
Muscle fiber-protecting effects of the compounds selected in 1. were examined by measuring the diameter of muscle fiber according to addition of the selected compounds.
As described in Example 1.1, C2C12 cells were completely differentiated to muscle cells. After removal of the medium, 4 ml of a fresh medium containing each 100 μM of isotretinoin (Roche), vismodegib (Genentech), or lincomycin hydrochloride (Sima-Aldrich) was added, and the cells were cultured in a 5% CO2 incubator at 37° C. for about 24 hours. As a negative control, muscle cells treated with DMSO (Sima-Aldrich), instead of the selected compounds, were used. As a positive control, muscle cells treated with forskolin were used.
Thereafter, the cultured cells were washed with PBS. Muscle fibers of the cells were photographed with a microscope (×200), and diameter (μm) of the muscle fiber was measured.

Compound | level (relative mRNA expression) of PGC-1 alpha 4 isoform compared to the negative control (PGC-1 alpha 4 isoform) | level (relative mRNA expression) of myostatin compared to the negative control (myostatin) | muscle fiber diameter compared to the negative control (C2C12 cells)
CC1=C(/C=C/C(C)=C/C=C/C(C)=C\C(=O)O)C(C)(C)CCC1 [isotretinoin, (2Z,4E,6E,8E)-3,7-dimethyl-9-(2,6,6-trimethylcyclohex-1-en-1-yl)nona-2,4,6,8-tetraenoic acid] | increasing | decreasing | increased
CCC[C@@H]1C[C@@H](C(=O)N[C@@H]([C@H]2O[C@H](SC)[C@H](O)[C@@H](O)[C@H]2O)[C@@H](C)O)N(C)C1 [lincomycin hydrochloride, (2S,4R)-N-[(1R,2R)-2-hydroxy-1-[(2R,3R,4S,5R,6R)-3,4,5-trihydroxy-6-(methylsulfanyl)oxan-2-yl]propyl]-1-methyl-4-propylpyrrolidine-2-carboxamide] | increasing | decreasing | increased
CS(=O)(=O)c1ccc(C(=O)Nc2ccc(Cl)c(-c3ccccn3)c2)c(Cl)c1 [vismodegib, 2-chloro-N-(4-chloro-3-pyridin-2-ylphenyl)-4-methylsulfonylbenzamide] | increasing | decreasing | increased
